Source: patent US9701670B2, “Pyrazolyl-ureas as kinase inhibitors” (RESPIVERT LIMITED, priority 2013, dated 2017)

Columns and labels:
[1] = tested on: Differentiated U937 cells; assay: (l) Cell viability: MTT assay; assay type: cell-based, human; details: 1 μg/mL
How it was run: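 Differentiated U937 cells were exposed to compound at 1 or 10 μg/mL either 4 h in 5% FCS RPMI1640 or 24 h in 10% FCS RPMI1640, then given MTT for 1 h, DMSO-solubilised and read at 550 nm. Percent viability loss versus 0.5% DMSO vehicle; apparent gains appear negative.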

[2] = molecular target: p38 MAPKα isoform (MAPK14) (Homo sapiens (Human), UniProt Q16539); assay: p38 MAPKα enzyme inhibition (FRET, Z-LYTE), Method 1; assay type: biochemical; details: Method 1 (Table 4a1)
Chain of p38 MAPKα isoform (MAPK14) (Q16539 whole entry, canonical isoform): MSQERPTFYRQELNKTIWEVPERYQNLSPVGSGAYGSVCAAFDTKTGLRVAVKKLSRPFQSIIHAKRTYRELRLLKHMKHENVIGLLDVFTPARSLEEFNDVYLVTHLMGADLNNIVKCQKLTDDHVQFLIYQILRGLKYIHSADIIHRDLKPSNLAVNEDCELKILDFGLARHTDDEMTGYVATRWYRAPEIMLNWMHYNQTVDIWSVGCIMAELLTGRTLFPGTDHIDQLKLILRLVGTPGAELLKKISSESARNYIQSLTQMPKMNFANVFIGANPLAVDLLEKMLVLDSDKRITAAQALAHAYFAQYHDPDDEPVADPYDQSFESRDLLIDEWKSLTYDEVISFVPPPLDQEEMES

SMILES | Cell viability at time point in d-U937 cells 4 h [1] | Cell viability at time point in d-U937 cells 24 h [1] | IC50 [2] [nM]
COc1cc(C(=O)NCCO)ccc1Nc1nccc(Oc2ccc(NC(=O)Nc3cc(C(C)C)nn3-c3ccc(C)cc3)c3ccccc23)n1 [Example 39, N-(2-hydroxyethyl)-4-((4-((4-(3-(3-isopropyl-1-(p-tolyl)-1H-pyrazol-5-yl)ureido)naphthalen-1-yl)oxy)pyrimidin-2-yl)amino)-3-methoxybenzamide] | −ve (−ve and +ve indicate that the value is below and above respectively, the no significant effect threshold, defined as 30% inhibition at 1 μg/mL at the time point indicated.) | −ve (−ve and +ve indicate that the value is below and above respectively, the no significant effect threshold, defined as 30% inhibition at 1 μg/mL at the time point indicated.) | 7
COc1ccc(-n2nc(C3CCOC3)cc2NC(=O)Nc2ccc(Oc3ccnc(Nc4cc(OC)cc(C(=O)NCCN5CCOCC5)c4)n3)c3ccccc23)cc1 (stereo not drawn) [Example 59, 3-methoxy-5-((4-((4-(3-(1-(4-methoxyphenyl)-3-(tetrahydrofuran-3-yl)-1H-pyrazol-5-yl)ureido)naphthalen-1-yl)oxy)pyrimidin-2-yl)amino)-N-(2-morpholinoethyl)benzamide] | −ve (−ve and +ve indicate that the value is below and above respectively, the no significant effect threshold, defined as 30% inhibition at 1 μg/mL at the time point indicated.) | −ve (−ve and +ve indicate that the value is below and above respectively, the no significant effect threshold, defined as 30% inhibition at 1 μg/mL at the time point indicated.) | 2
COc1cc(C(=O)NCCN2CCOCC2)ccc1Nc1nccc(Oc2ccc(NC(=O)Nc3cc(C(C)(C)C)nn3-c3ccc(C)cc3)c3ccccc23)n1 [Example 37, 4-((4-((4-(3-(3-(tert-butyl)-1-(p-tolyl)-1H-pyrazol-5-yl)ureido)naphthalen-1-yl)oxy)pyrimidin-2-yl)amino)-3-methoxy-N-(2-morpholinoethyl)benzamide] | −ve (−ve and +ve indicate that the value is below and above respectively, the no significant effect threshold, defined as 30% inhibition at 1 μg/mL at the time point indicated.) | −ve (−ve and +ve indicate that the value is below and above respectively, the no significant effect threshold, defined as 30% inhibition at 1 μg/mL at the time point indicated.) | 44
COc1ccc(-n2nc(C3CCCO3)cc2NC(=O)Nc2ccc(Oc3ccnc(Nc4cc(OC)cc(C(=O)NCCN5CCOCC5)c4)n3)c3ccccc23)cc1 (stereo not drawn) [Example 58, 3-methoxy-5-((4-((4-(3-(1-(4-methoxyphenyl)-3-(tetrahydrofuran-2-yl)-1H-pyrazol-5-yl)ureido)naphthalen-1-yl)oxy)pyrimidin-2-yl)amino)-N-(2-morpholinoethyl)benzamide] | −ve (−ve and +ve indicate that the value is below and above respectively, the no significant effect threshold, defined as 30% inhibition at 1 μg/mL at the time point indicated.) | −ve (−ve and +ve indicate that the value is below and above respectively, the no significant effect threshold, defined as 30% inhibition at 1 μg/mL at the time point indicated.) | < 1
COc1ccc(-n2nc(C(C)(C)C)cc2NC(=O)Nc2ccc(Oc3ccnc(Nc4cccc(C(=O)NCCN5CCOCC5)c4)n3)c3ccccc23)cc1 [Example 21, 3-((4-((4-(3-(3-(tert-butyl)-1-(4-methoxyphenyl)-1H-pyrazol-5-yl)ureido)naphthalen-1-yl)oxy)pyrimidin-2-yl)amino)-N-(2-morpholinoethyl)benzamide] | −ve (−ve and +ve indicate that the value is below and above respectively, the no significant effect threshold, defined as 30% inhibition at 1 μg/mL at the time point indicated.) | −ve (−ve and +ve indicate that the value is below and above respectively, the no significant effect threshold, defined as 30% inhibition at 1 μg/mL at the time point indicated.) | 10
COc1cc(C(=O)NCCO)ccc1Nc1nccc(Oc2ccc(NC(=O)Nc3cc(C(C)(C)C)nn3-c3ccc(C)cc3)c3ccccc23)n1 [Example 4, 4-((4-((4-(3-(3-(tert-Butyl)-1-(p-tolyl)-1H-pyrazol-5-yl)ureido)naphthalen-1-yl)oxy)pyrimidin-2-yl)amino)-N-(2-hydroxyethyl)-3-methoxybenzamide] | −ve (−ve and +ve indicate that the value is below and above respectively, the no significant effect threshold, defined as 30% inhibition at 1 μg/mL at the time point indicated.) | −ve (−ve and +ve indicate that the value is below and above respectively, the no significant effect threshold, defined as 30% inhibition at 1 μg/mL at the time point indicated.) | 26
COc1ccc(-n2nc(C(C)(C)C)cc2NC(=O)Nc2ccc(Oc3ccnc(Nc4cc(OC)cc(C(N)=O)c4)n3)c3ccccc23)cc1 [Example 41, 3-((4-((4-(3-(3-(tert-butyl)-1-(4-methoxyphenyl)-1H-pyrazol-5-yl)ureido)naphthalen-1-yl)oxy)pyrimidin-2-yl)amino)-5-methoxybenzamide] | −ve (−ve and +ve indicate that the value is below and above respectively, the no significant effect threshold, defined as 30% inhibition at 1 μg/mL at the time point indicated.) | −ve (−ve and +ve indicate that the value is below and above respectively, the no significant effect threshold, defined as 30% inhibition at 1 μg/mL at the time point indicated.) | 50
COc1ccc(-n2nc(C(C)C)cc2NC(=O)Nc2ccc(Oc3ccnc(Nc4cc(OC)cc(C(=O)NCCN5CCOCC5)c4)c3)c3ccccc23)cc1 [Example 15, 3-((4-((4-(3-(3-isopropyl-1-(4-methoxyphenyl)-1H-pyrazol-5-yl)ureido)naphthalen-1-yl)oxy)pyridin-2-yl)amino)-5-methoxy-N-(2-morpholinoethyl)benzamide] | −ve (−ve and +ve indicate that the value is below and above respectively, the no significant effect threshold, defined as 30% inhibition at 1 μg/mL at the time point indicated.) | −ve (−ve and +ve indicate that the value is below and above respectively, the no significant effect threshold, defined as 30% inhibition at 1 μg/mL at the time point indicated.) | 7
Cc1ccc(-n2nc(C(C)(C)C)cc2NC(=O)Nc2ccc(Oc3ccnc(Nc4cc(C)cc(C(N)=O)c4)n3)c3ccccc23)cc1 [Example 40, 3-((4-((4-(3-(3-(tert-butyl)-1-(p-tolyl)-1H-pyrazol-5-yl)ureido)naphthalen-1-yl)oxy)pyrimidin-2-yl)amino)-5-methylbenzamide] | −ve (−ve and +ve indicate that the value is below and above respectively, the no significant effect threshold, defined as 30% inhibition at 1 μg/mL at the time point indicated.) | −ve (−ve and +ve indicate that the value is below and above respectively, the no significant effect threshold, defined as 30% inhibition at 1 μg/mL at the time point indicated.) | 52
COc1ccc(C(=O)NCCO)cc1Nc1nccc(Oc2ccc(NC(=O)Nc3cc(C(C)C)nn3-c3ccc(C)cc3)c3ccccc23)n1 [Example 32, N-(2-hydroxyethyl)-3-((4-((4-(3-(3-isopropyl-1-(p-tolyl)-1H-pyrazol-5-yl)ureido)naphthalen-1-yl)oxy)pyrimidin-2-yl)amino)-4-methoxybenzamide] | −ve (−ve and +ve indicate that the value is below and above respectively, the no significant effect threshold, defined as 30% inhibition at 1 μg/mL at the time point indicated.) | −ve (−ve and +ve indicate that the value is below and above respectively, the no significant effect threshold, defined as 30% inhibition at 1 μg/mL at the time point indicated.) | 1
COc1cc(Nc2nccc(Oc3ccc(NC(=O)Nc4cc(C(C)C)nn4-c4ccc(C)cc4)c4ccccc34)n2)cc(C(=O)N2CCN(C)CC2)c1 [Example 69, 1-(3-isopropyl-1-(p-tolyl)-1H-pyrazol-5-yl)-3-(4-((2-((3-methoxy-5-(4-methylpiperazine-1-carbonyl)phenyl)amino)pyrimidin-4-yl)oxy)naphthalen-1-yl)urea] | −ve (−ve and +ve indicate that the value is below and above respectively, the no significant effect threshold, defined as 30% inhibition at 1 μg/mL at the time point indicated.) | −ve (−ve and +ve indicate that the value is below and above respectively, the no significant effect threshold, defined as 30% inhibition at 1 μg/mL at the time point indicated.) | 2
COc1cc(Nc2nccc(Oc3ccc(NC(=O)Nc4cc(C5(C)CC5)nn4-c4ccc(C)cc4)c4ccccc34)n2)cc(C(=O)NCCN2CCOCC2)c1 [Example 51, 3-methoxy-5-((4-((4-(3-(3-(1-methylcyclopropyl)-1-(p-tolyl)-1H-pyrazol-5-yl)ureido)naphthalen-1-yl)oxy)pyrimidin-2-yl)amino)-N-(2-morpholinoethyl)benzamide] | −ve (−ve and +ve indicate that the value is below and above respectively, the no significant effect threshold, defined as 30% inhibition at 1 μg/mL at the time point indicated.) | −ve (−ve and +ve indicate that the value is below and above respectively, the no significant effect threshold, defined as 30% inhibition at 1 μg/mL at the time point indicated.) | 15
